Values of other authors in patent US20110105449A1, “DRY POWDER FORMULATIONS COMPRISING ASCORBIC ACID DERIVATES” (ASTRAZENECA R&D, priority 2007, published 2011).
In brackets after ≈: the same amount, converted by molar mass.

Details: at 25° C.

water solubility: 16 µg/mL (≈ 37.2 µM)
Structure (SMILES): CCCC1O[C@@H]2C[C@H]3[C@@H]4CCC5=CC(=O)C=C[C@]5(C)[C@H]4[C@@H](O)C[C@]3(C)[C@]2(C(=O)CO)O1 (stereo partly shown) [Budesonide, budesonide]
